Patent publication US10202339B2, “Therapeutic compounds and compositions” (AGIOS PHARMACEUTICALS, INC., priority 2012, dated 2019)

Target: IDH1 R132H (Homo sapiens (Human), UniProt O75874, R132H)
Test: In vitro assay for IDH1m (R132H) inhibitors, NADPH depletion with resazurin/resorufin detection
Type: biochemical
Settings: IDH1 R132H enzyme, 50 minutes at room temperature; read-out: IDH R132H IC50
Experimental: Assays were conducted in a volume of 76 μl assay buffer (150 mM NaCl, 10 mM MgCl2, 20 mM Tris pH 7.5, 0.03% bovine serum albumin) as follows in a standard 384-well plate: To 25 ul of substrate mix (8 uM NADPH, 2 mM aKG), 1 μl of test compound was added in DMSO. The plate was centrifuged briefly, and then 25 μl of enzyme mix was added (0.2 μg/ml IDH1 R132H) followed by a brief centrifugation and shake at 100 RPM. The reaction was incubated for 50 minutes at room temperature, then 25 μl of detection mix (30 μM resazurin, […]) was added and the mixture further incubated for 5 minutes at room temperature. The conversion of resazurin to resorufin was detected by fluorescent spectroscopy at Ex544 Em590 c/o 590.
Representative compounds of formula (I) set forth in Tables 1 and 2 were tested in this assay and the results are set forth below in Table 4.

IDH1 R132H, sequence (O75874 whole entry R132H): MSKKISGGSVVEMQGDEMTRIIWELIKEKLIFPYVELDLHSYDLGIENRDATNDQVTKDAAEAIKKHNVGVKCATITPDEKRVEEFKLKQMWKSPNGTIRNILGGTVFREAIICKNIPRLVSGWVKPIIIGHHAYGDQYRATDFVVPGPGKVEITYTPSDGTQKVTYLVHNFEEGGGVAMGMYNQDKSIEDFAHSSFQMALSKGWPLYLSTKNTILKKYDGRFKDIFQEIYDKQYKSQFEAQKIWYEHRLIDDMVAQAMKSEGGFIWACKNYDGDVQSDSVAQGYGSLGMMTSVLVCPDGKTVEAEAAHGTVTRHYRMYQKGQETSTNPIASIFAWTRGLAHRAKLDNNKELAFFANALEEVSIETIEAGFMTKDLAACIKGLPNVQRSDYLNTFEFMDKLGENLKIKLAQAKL

SMILES: Cc1ccc(NC(=O)Nc2c(C)cc(Br)cc2C)cc1S(=O)(=O)Nc1ccc(Cl)cc1 [Compound 239]
- IC50: 1 to 10 µM

SMILES: Cc1ccc(F)c(NC(=O)Nc2ccc(C)c(S(=O)(=O)Nc3ccc(Cl)cc3)c2)c1 [Compound 240]
- IC50: 1 to 10 µM

SMILES: Cc1ccc(F)cc1NC(=O)Nc1ccc(C)c(S(=O)(=O)Nc2ccc(Cl)cc2)c1 [Compound 241]
- IC50: 1 to 10 µM

SMILES: Cc1ccc(NC(=O)Nc2ccc(Cl)c([N+](=O)[O-])c2)cc1S(=O)(=O)Nc1ccc(Cl)cc1 [Compound 242]
- IC50: 1 to 10 µM

SMILES: Cc1ccc(NC(=O)Nc2cc(Cl)ccc2[N+](=O)[O-])cc1S(=O)(=O)Nc1ccc(Cl)cc1 [Compound 243]
- IC50: 1 to 10 µM

SMILES: Cc1ccc(NC(=O)Nc2ccc([N+](=O)[O-])cc2Cl)cc1S(=O)(=O)Nc1ccc(Cl)cc1 [Compound 244]
- IC50: 1 to 10 µM

SMILES: Cc1ccc(NC(=O)Nc2ccc(F)cc2[N+](=O)[O-])cc1S(=O)(=O)Nc1ccc(Cl)cc1 [Compound 245]
- IC50: 1 to 10 µM

SMILES: Cc1ccc(NC(=O)Nc2cc(Cl)c(Cl)cc2Cl)cc1S(=O)(=O)Nc1ccc(Cl)cc1 [Compound 246]
- IC50: 1 to 10 µM

SMILES: Cc1ccc(NC(=O)Nc2c(Cl)cc(F)cc2Br)cc1S(=O)(=O)Nc1ccc(Cl)cc1 [Compound 247]
- IC50: 1 to 10 µM

SMILES: Cc1ccc(NC(=O)Nc2ccc(F)c(F)c2F)cc1S(=O)(=O)Nc1ccc(Cl)cc1 [Compound 248]
- IC50: 1 to 10 µM

SMILES: Cc1cccc(NC(=O)Nc2ccc(C)c(S(=O)(=O)Nc3ccc(Cl)cc3)c2)c1 [Compound 249]
- IC50: 1 to 10 µM

SMILES: CCc1ccccc1NC(=O)Nc1ccc(C)c(S(=O)(=O)Nc2ccc(Cl)cc2)c1 [Compound 250]
- IC50: 1 to 10 µM

SMILES: CCc1cccc(NC(=O)Nc2ccc(C)c(S(=O)(=O)Nc3ccc(Cl)cc3)c2)c1 [Compound 251]
- IC50: 1 to 10 µM

SMILES: CCc1ccc(NC(=O)Nc2ccc(C)c(S(=O)(=O)Nc3ccc(Cl)cc3)c2)cc1 [Compound 252]
- IC50: 1 to 10 µM

SMILES: CCCCc1ccc(NC(=O)Nc2ccc(C)c(S(=O)(=O)Nc3ccc(Cl)cc3)c2)cc1 [Compound 253]
- IC50: 1 to 10 µM

SMILES: Cc1ccc(NC(=O)Nc2ccc(C(C)C)cc2)cc1S(=O)(=O)Nc1ccc(Cl)cc1 [Compound 254]
- IC50: 1 to 10 µM

SMILES: Cc1ccc(NC(=O)Nc2ccccc2C(C)(C)C)cc1S(=O)(=O)Nc1ccc(Cl)cc1 [Compound 255]
- IC50: 1 to 10 µM

SMILES: Cc1ccc(NC(=O)Nc2ccc(C(C)(C)C)cc2)cc1S(=O)(=O)Nc1ccc(Cl)cc1 [Compound 256]
- IC50: 1 to 10 µM

SMILES: Cc1ccc(NC(=O)Nc2c(C)cccc2C)cc1S(=O)(=O)Nc1ccc(Cl)cc1 [Compound 257]
- IC50: 1 to 10 µM

SMILES: Cc1ccc(NC(=O)Nc2cccc(C)c2C)cc1S(=O)(=O)Nc1ccc(Cl)cc1 [Compound 258]
- IC50: 1 to 10 µM

SMILES: Cc1ccc(NC(=O)Nc2ccc(C)c(S(=O)(=O)Nc3ccc(Cl)cc3)c2)cc1C [Compound 259]
- IC50: 1 to 10 µM

SMILES: Cc1cc(C)cc(NC(=O)Nc2ccc(C)c(S(=O)(=O)Nc3ccc(Cl)cc3)c2)c1 [Compound 260]
- IC50: 1 to 10 µM

SMILES: CCc1cccc(CC)c1NC(=O)Nc1ccc(C)c(S(=O)(=O)Nc2ccc(Cl)cc2)c1 [Compound 261]
- IC50: 1 to 10 µM

SMILES: Cc1cc([N+](=O)[O-])ccc1NC(=O)Nc1ccc(C)c(S(=O)(=O)Nc2ccc(Cl)cc2)c1 [Compound 262]
- IC50: 1 to 10 µM

SMILES: Cc1ccc(NC(=O)Nc2ccc(C)c(S(=O)(=O)Nc3ccc(Cl)cc3)c2)cc1[N+](=O)[O-] [Compound 263]
- IC50: 1 to 10 µM

SMILES: Cc1ccc(NC(=O)Nc2cccc([N+](=O)[O-])c2C)cc1S(=O)(=O)Nc1ccc(Cl)cc1 [Compound 264]
- IC50: 1 to 10 µM

SMILES: COc1ccccc1NC(=O)Nc1ccc(C)c(S(=O)(=O)Nc2ccc(Cl)cc2)c1 [Compound 265]
- IC50: 1 to 10 µM

SMILES: COc1cccc(NC(=O)Nc2ccc(C)c(S(=O)(=O)Nc3ccc(Cl)cc3)c2)c1 [Compound 266]
- IC50: 1 to 10 µM

SMILES: COc1ccc(NC(=O)Nc2ccc(C)c(S(=O)(=O)Nc3ccc(Cl)cc3)c2)cc1 [Compound 267]
- IC50: 1 to 10 µM

SMILES: COc1ccc(OC)c(NC(=O)Nc2ccc(C)c(S(=O)(=O)Nc3ccc(Cl)cc3)c2)c1 [Compound 268]
- IC50: 1 to 10 µM

SMILES: COc1cc(NC(=O)Nc2ccc(C)c(S(=O)(=O)Nc3ccc(Cl)cc3)c2)cc(OC)c1 [Compound 269]
- IC50: 1 to 10 µM

SMILES: COc1ccc(Cl)cc1NC(=O)Nc1ccc(C)c(S(=O)(=O)Nc2ccc(Cl)cc2)c1 [Compound 270]
- IC50: 1 to 10 µM

SMILES: COc1cc(OC)c(NC(=O)Nc2ccc(C)c(S(=O)(=O)Nc3ccc(Cl)cc3)c2)cc1Cl [Compound 271]
- IC50: 1 to 10 µM

SMILES: COc1cc([N+](=O)[O-])ccc1NC(=O)Nc1ccc(C)c(S(=O)(=O)Nc2ccc(Cl)cc2)c1 [Compound 272]
- IC50: 1 to 10 µM

SMILES: CSc1cccc(NC(=O)Nc2ccc(C)c(S(=O)(=O)Nc3ccc(Cl)cc3)c2)c1 [Compound 273]
- IC50: 1 to 10 µM

SMILES: CSc1ccc(NC(=O)Nc2ccc(C)c(S(=O)(=O)Nc3ccc(Cl)cc3)c2)cc1 [Compound 274]
- IC50: 1 to 10 µM

SMILES: Cc1ccc(NC(=O)Nc2cccc([N+](=O)[O-])c2)cc1S(=O)(=O)Nc1ccc(Cl)cc1 [Compound 275]
- IC50: 1 to 10 µM

SMILES: COC(=O)c1cccc(NC(=O)Nc2ccc(C)c(S(=O)(=O)Nc3ccc(Cl)cc3)c2)c1 [Compound 276]
- IC50: 1 to 10 µM

SMILES: Cc1ccc(NC(=O)NCc2ccc(Br)cc2)cc1S(=O)(=O)Nc1ccc(Cl)cc1 [Compound 277]
- IC50: 1 to 10 µM

SMILES: Cc1ccc(NC(=O)NCc2ccccc2F)cc1S(=O)(=O)Nc1ccc(Cl)cc1 [Compound 278]
- IC50: 1 to 10 µM

SMILES: Cc1ccc(NC(=O)NCc2cccc(F)c2)cc1S(=O)(=O)Nc1ccc(Cl)cc1 [Compound 279]
- IC50: 1 to 10 µM

SMILES: Cc1ccc(NC(=O)NCc2ccc(Cl)cc2Cl)cc1S(=O)(=O)Nc1ccc(Cl)cc1 [Compound 280]
- IC50: 1 to 10 µM

SMILES: Cc1cccc(CNC(=O)Nc2ccc(C)c(S(=O)(=O)Nc3ccc(Cl)cc3)c2)c1 [Compound 282]
- IC50: 1 to 10 µM

SMILES: Cc1ccc(CNC(=O)Nc2ccc(C)c(S(=O)(=O)Nc3ccc(Cl)cc3)c2)cc1 [Compound 283]
- IC50: 1 to 10 µM

SMILES: Cc1ccc(NC(=O)N[C@H](C)c2ccccc2)cc1S(=O)(=O)Nc1ccc(Cl)cc1 [Compound 284]
- IC50: 1 to 10 µM

SMILES: Cc1ccc(NC(=O)Nc2ccccc2Cc2ccccc2)cc1S(=O)(=O)Nc1ccc(Cl)cc1 [Compound 285]
- IC50: 1 to 10 µM

SMILES: Cc1ccc(NC(=O)NC2C[C@H]2c2ccccc2)cc1S(=O)(=O)Nc1ccc(Cl)cc1 (stereo partly shown) [Compound 286]
- IC50: 1 to 10 µM

SMILES: Cc1ccc(NC(=O)Nc2ccc3ccccc3c2)cc1S(=O)(=O)Nc1ccc(Cl)cc1 [Compound 287]
- IC50: 1 to 10 µM

SMILES: Cc1ccc(NC(=O)N[C@@H](C)c2cccc3ccccc23)cc1S(=O)(=O)Nc1ccc(Cl)cc1 [Compound 288]
- IC50: 1 to 10 µM

SMILES: Cc1ccc(NC(=O)Nc2ccsc2)cc1S(=O)(=O)Nc1ccc(Cl)cc1 [Compound 289]
- IC50: 1 to 10 µM

SMILES: Cc1ccc(NC(=O)Nc2c(-c3ccccc3)noc2C)cc1S(=O)(=O)Nc1ccc(Cl)cc1 [Compound 290]
- IC50: 1 to 10 µM

SMILES: Cc1ccc(NC(=O)Nc2ccc3c(c2)CCO3)cc1S(=O)(=O)Nc1ccc(Cl)cc1 [Compound 291]
- IC50: 1 to 10 µM

SMILES: Cc1ccc(NC(=O)Nc2ccc3c(c2)OCO3)cc1S(=O)(=O)Nc1ccc(Cl)cc1 [Compound 292]
- IC50: 1 to 10 µM

SMILES: Cc1ccc(NC(=O)Nc2cccc(C(F)(F)F)c2)cc1S(=O)(=O)Nc1ccccc1Cl [Compound 293]
- IC50: 1 to 10 µM

SMILES: Cc1ccc(NC(=O)Nc2cccc(C(F)(F)F)c2)cc1S(=O)(=O)Nc1cccc(Cl)c1 [Compound 294]
- IC50: 1 to 10 µM

SMILES: Cc1ccc(NC(=O)Nc2cccc(C(F)(F)F)c2)cc1S(=O)(=O)Nc1ccccc1F [Compound 295]
- IC50: 1 to 10 µM

SMILES: Cc1ccc(NC(=O)Nc2cccc(C(F)(F)F)c2)cc1S(=O)(=O)Nc1cccc(F)c1 [Compound 296]
- IC50: 1 to 10 µM

SMILES: Cc1ccc(NC(=O)Nc2cccc(C(F)(F)F)c2)cc1S(=O)(=O)Nc1ccc(F)cc1 [Compound 297]
- IC50: 1 to 10 µM

SMILES: Cc1cc(F)ccc1NS(=O)(=O)c1cc(NC(=O)Nc2cccc(C(F)(F)F)c2)ccc1C [Compound 298]
- IC50: 1 to 10 µM

SMILES: Cc1ccc(NC(=O)Nc2cccc(C(F)(F)F)c2)cc1S(=O)(=O)Nc1ccc(F)c(Cl)c1 [Compound 299]
- IC50: 1 to 10 µM

SMILES: Cc1ccc(NC(=O)Nc2cccc(C(F)(F)F)c2)cc1S(=O)(=O)Nc1cc(F)c(F)cc1F [Compound 301]
- IC50: 1 to 10 µM

SMILES: Cc1cccc(NS(=O)(=O)c2cc(NC(=O)Nc3cccc(C(F)(F)F)c3)ccc2C)c1 [Compound 302]
- IC50: 1 to 10 µM

SMILES: Cc1ccc(NC(=O)Nc2cccc(C(F)(F)F)c2)cc1S(=O)(=O)Nc1ccc(O)cc1 [Compound 304, N-(4-hydroxyphenyl)-2-methyl-5-(3-(3-(trifluoromethyl)phenyl)ureido)benzenesulfonamide]
- IC50: ≤ 1 µM

SMILES: CCCOc1ccc(NS(=O)(=O)c2cc(NC(=O)Nc3cccc(C(F)(F)F)c3)ccc2C)cc1 [Compound 305]
- IC50: 1 to 10 µM

SMILES: Cc1ccc(NC(=O)Nc2cccc(C(F)(F)F)c2)cc1S(=O)(=O)Nc1ccc(OS(C)(=O)=O)cc1 [Compound 306]
- IC50: 1 to 10 µM

SMILES: CCOC(=O)COc1ccc(NS(=O)(=O)c2cc(NC(=O)Nc3cccc(C(F)(F)F)c3)ccc2C)cc1 [Compound 308]
- IC50: 1 to 10 µM

SMILES: CC(=O)Nc1ccc(NS(=O)(=O)c2cc(NC(=O)Nc3cccc(C(F)(F)F)c3)ccc2C)cc1 [Compound 309]
- IC50: 1 to 10 µM

SMILES: CCOC(=O)CNc1ccc(NS(=O)(=O)c2cc(NC(=O)Nc3cccc(C(F)(F)F)c3)ccc2C)cc1 [Compound 310]
- IC50: 1 to 10 µM

SMILES: Cc1ccc(NC(=O)Nc2cccc(C(F)(F)F)c2)cc1S(=O)(=O)Nc1ccc(C#N)cc1 [Compound 311]
- IC50: 1 to 10 µM

SMILES: Cc1ccc(NC(=O)Nc2cccc(C(F)(F)F)c2)cc1S(=O)(=O)Nc1ccc(C(=O)O)cc1 [Compound 312]
- IC50: 1 to 10 µM
